Legend:
Assay type in all cases: cell-based
human tumor H5315 BREAST = experiment: Human Tumor Stem Cell Assay, colony growth after one hour exposure; conditions: LO: furandione 0.2 mcg/ml; standard drugs 10% of peak plasma concentration; 1 h
Source text: (§1) The in vitro Human Tumor Stem Cell Assay procedure described as follows has several advantages for testing the effectiveness of chemotherapy drugs such as the 3-(heteroarylalkylene)-2,4(3H,5H)-furandiones. The first advantage is that fresh tumor cells from a variety of tumor types were used rather than a small number of cell lines which have undergone severe selection pressures as they are passed in vitro. The second advantage is that only the anchorage-independent tumor cells will form colonies in soft agar so that any non-malignant cells present in the sample will not form colonies. Perhaps the most important advantage, however, is the emphasis on cells which have the ability to form colonies. These cells, which are generally called stem cells, usually comprise only a small percentage of all tumor cells. They are thought to be the most important cells for growth and distant spread of a tumor. In particular, these cells have the potential to leave the primary tumor and form new tumors at distant sites (called metastases). It is the effectiveness against these very important stem cells that the Human Tumor Stem Cell Assay measures.
(§2) One of the 3-(heteroarylalkylene)-2,4(3H,5H)-furandione compounds, 3-[(5-methyl-2-thienyl) methylene]-2,4(3H,5H)-furandione was evaluated against a series of 10 human tumors in the in vitro Human Tumor Cell Assay, along with conventional and standard chemotherapy agents.
(§3) In the procedure, a single cell suspension was prepared from tumors excised from patients during therapeutic or diagnostic surgical procedures. The human tumor cells were exposed to known anticancer drugs or to [(5-methyl-2-thienyl)methylene]-2,4 (3H, 5H)-furandione at a low (0.2 mcg/ml) or a high (1.0 mcg/ml) concentration for one hour. […] The suspension was washed with tissue culture medium to remove the drug.
(§4) The suspension was then cultured in a double soft agar suspension. Control cells which had been treated identically, except for exposure to the drugs, were also cultured. After one to two weeks, both the tumor cells and the control cells formed colonies in the soft agar which were enumerated under a microscope. The number of colonies grown from the drug-treated cells was compared to the number of colonies grown from the control cells, and the percentage growth after exposure to the drug was calculated.
(§5) The results are illustrated in Table 1, wherein the various numbers indicate the percentage of growth. For example, a small number like 6 means that the number of colonies is only 6% of the number without addition of the compound. On the other hand, a large number like 120 means that the number of colonies is 20% greater with the compound than without.
(§6) Of the nine tumors for which the higher concentration (1.0 mcg/ml) of the furandione was used, five gave inhibition of colony growth corresponding to borderline sensitive (30-50% growth) and four gave inhibition corresponding to sensitivity (0-30% growth). Clinical drugs are normally tested at 10% of their peak plasma concentration. For the standard chemotherapy drugs shown in Table 1, the low concentration (LO) corresponds to this 10% level, and the high concentration (HI) is at 50% of the peak plasma concentration. Of the same nine tumors, only two would have been rated as sensitive or borderline sensitive to any of the other clinical drugs tested.

human tumor H5318 OVARY = experiment: as above; conditions: 1 h
Source text: as §1, §2, §3, §4, §5, §6

human tumor H5319 BREAST = experiment: as above; conditions: 1 h
Source text: as §1, §2, §3, §4, §5, §6

[1] = tested on: human tumor H5322 STOMACH; experiment: as above; conditions: 1 h
Source text: as §1, §2, §3, §4, §5, §6

human tumor H5330 THYMUS = experiment: as above; conditions: HI: furandione 1.0 mcg/ml; standard drugs 50% of peak plasma concentration; 1 h
Source text: as §1, §2, §3, §4, §5, §6

human tumor H5331 OVARY = experiment: as above; conditions: 1 h
Source text: as §1, §2, §3, §4, §5, §6

human tumor H5340 ** = experiment: as above; conditions: 1 h
Source text: as §1, §2, §3, §4, §5, §6

[2] = tested on: human tumor H5325 SARCOMA; experiment: as above; conditions: 1 h
Source text: as §1, §2, §3, §4, §5, §6

human tumor H5337 COLON = experiment: as above; conditions: 1 h
Source text: as §1, §2, §3, §4, §5, §6

human tumor H5349 BREAST = experiment: as above; conditions: 1 h
Source text: as §1, §2, §3, §4, §5, §6

[3] = tested on: K562 cells (human chronic granulocytic leukemia); experiment: K562 human leukemia cell suspension culture, cell concentration; conditions: 1 ug/ml
Protocol: In this example, 1 mcg/ml of 3[[5-methyl-2-thienyl]methylene]2, 4 (3H, 5H) furandione was compared to 1 mcg/ml of 3[[3-methyl-2-thienyl]methylene]2, 4 (3H, 5H) furandione.
A conventionally available cell line (K562) derived from human chronic granulocytic leukemia was employed in an in vitro procedure. The leukemia cell line was cultured in a suspension of RPMI 1640 plus 10% fetal calf serum. All initial cell concentrations for the cultures were 0.65 times 10^5 cells/ml. Four separate suspension cultures were employed with the first suspension culture having no additions. The second suspension culture included 100 microliters of the solvent DMSO per 10 ml of culture (control). The third culture contained 1 ug/ml of 3[[5-methyl-2 thienyl]methylene]-2, 4 (3H, 5H) furandione and the fourth culture contained 1 ug/ml of 3[[3-methyl-2-thienyl]methylene]-2, 4 (3H, 5H) furandione. The cell concentration of each of the four cultures was determined. After three days and again after five days.

[4] = HI: furandione 1.0 mcg/ml, standard drugs 50% of peak plasma concentration
[5] = LO: furandione 0.2 mcg/ml, standard drugs 10% of peak plasma concentration

SMILES	percentage of growth (colonies vs control) (human tumor H5315 BREAST)	percentage of growth (colonies vs control) (human tumor H5318 OVARY; [4])	percentage of growth (colonies vs control) (human tumor H5319 BREAST; [4])	percentage of growth (colonies vs control) [1, 4]	percentage of growth (colonies vs control) (human tumor H5330 THYMUS)	percentage of growth (colonies vs control) (human tumor H5331 OVARY; [4])	percentage of growth (colonies vs control) (human tumor H5340 **; [4])	percentage of growth (colonies vs control) [2, 4]	percentage of growth (colonies vs control) (human tumor H5337 COLON; [4])	percentage of growth (colonies vs control) (human tumor H5318 OVARY; [5])	percentage of growth (colonies vs control) [1, 5]	percentage of growth (colonies vs control) [2, 5]	percentage of growth (colonies vs control) (human tumor H5349 BREAST; [4])	also measured
CO[C@@]12[C@H](COC(N)=O)C3=C(C(=O)C(C)=C(N)C3=O)N1C[C@@H]1N[C@@H]12 [MTC, MITOMYCIN C]	59%	90%	72%	69%	90%	102%								
CCOC(=O)NC1=C(N2CC2)C(=O)C(NC(=O)OCC)=C(N2CC2)C1=O [AZO, AZIRIDIMYLBENYOQUINONE]							107%							
CC[C@]1(O)C[C@H]2CN(CCc3c([nH]c4ccccc34)[C@@](C(=O)OC)(c3cc4c(cc3OC)N(C=O)[C@H]3[C@@](O)(C(=O)OC)[C@H](OC(C)=O)[C@]5(CC)C=CCN6CC[C@]43[C@@H]65)C2)C1 [VCR, VINCRISTINE]							113%							
Nc1nc(=S)c2[nH]cnc2[nH]1 [Compound 6TG, 6THOQUANINE]				122%			50%	69%						percentage of growth (colonies vs control) (human tumor H5340 **; [5]): 75%
O=NN(CCCl)C(=O)NCCCl [BCNU, BISCHLORETHYLNITROSOUREA]	108%	93%	122%		74%	111%			88%					
COc1cccc2c1C(=O)c1c(O)c3c(c(O)c1C2=O)C[C@@](O)(C(=O)CO)C[C@@H]3O[C@H]1C[C@H](N)[C@H](O)[C@H](C)O1 [ADR, ADRIAMYCIN]	75%	60%	100%	65%	98%	105%		11%		76%	55%	22%	82%	
CC[C@]1(O)C[C@@H]2CN(CCc3c([nH]c4ccccc34)[C@@](C(=O)OC)(c3cc4c(cc3OC)N(C)[C@H]3[C@@](O)(C(=O)OC)[C@H](OC(C)=O)[C@]5(CC)C=CCN6CC[C@]43[C@@H]65)C2)C1 [VBL, VINBLASTINE]	50%	60%	6%	35%		45%	44%	8%	67%	39%	40%	9%	65%	percentage of growth (colonies vs control) (human tumor H5319 BREAST; [5]): 5%; percentage of growth (colonies vs control) (human tumor H5331 OVARY; [5]): 115%; percentage of growth (colonies vs control) (human tumor H5337 COLON; [5]): 60%; percentage of growth (colonies vs control) (human tumor H5340 **; [5]): 79%; percentage of growth (colonies vs control) (human tumor H5349 BREAST; [5]): 70%
Cc1ccsc1C=C1C(=O)COC1=O [3 methyl, 3[[3-methyl-2-thienyl]methylene]-2, 4 (3H, 5H) furandione]														effect on leukemia culture [3]: also shows a decrease in the leukemia cell concentration culture, but the decrease is not as great as with the other compound; Cell Conc. ([3]; 3 Days): 50000 mL⁻¹; Cell Conc. ([3]; 5 Days): 150000 mL⁻¹; cell concentration vs 5-methyl analog ([3]; after five days): slightly higher cell concentration than the 5-methyl analog
N.N.[Cl][Pt][Cl] [CPDD, CISPLATIN]		38%		56%	75%	69%	125%		41%	109%	63%	62%	54%	percentage of growth (colonies vs control) (human tumor H5331 OVARY; [5]): 87%; percentage of growth (colonies vs control) (human tumor H5337 COLON; [5]): 98%; percentage of growth (colonies vs control) (human tumor H5349 BREAST; [5]): 48%

From patent publication US4996227A, “3-(heteroarylalkyene)- and 3-(arylalkylene)-2,4(3H,5H)-heterocyclic diones as cancer chemotherapy drugs” (priority 1989, dated 1991)
